# Source: US10166216B2 (Rigel Pharmaceuticals, Inc., priority 2006, dated 2019)
# Biological target: Axl (Homo sapiens (Human), UniProt P30530)
# Test: Phospho-Akt in-cell Western assay (Axl-antibody cross-linking stimulation)
# Format: cell-based
# Details: inhibition of Axl activity, Hela cells, phospho-Akt readout; Table 1, formula (Ia1)
# Description: The working solution: dilute the stock 1:20 with PBS immediately before use. • 10% SDS: working solution: 5% SDS (sodium dodecylsulfate), diluted in PBS Methods: Day 1:
# A 96 well TC (tissue culture treated) plate was coated with 10 μg/mL poly-L-Lysine at 37° C. for 30 min, washed twice with PBS, and air-dried for 5 minutes before cells were added. Hela cells were seeded at 10,000 cells/well and the cells were starved in 100 μL starvation medium containing Axl/Fc for 24 hrs.
# The cells were pre-treated with test compounds by adding 100 μL of 2× test compound to the starvation medium on the cells. The cells were incubated at 37° C. for 1 hr before stimulation.
# The resulting mix was warmed to 37° C. 50 μL of 5× Axl 1st/2nd of antibody cluster was added to the cells and the cells were incubated at 37° C. for 5 min.
# After 5 minutes stimulation, the plate was flicked to remove medium and the plate was tapped onto paper towels. Formaldehyde (4.0% in PBS, 100 μL) was added to fix the cells and the cells were incubated at ambient temperature for 20 min without shaking.
# The cells were washed with a plate washer buffer to remove the formaldehyde solution. The plate was flicked to removed excess wash buffer and tapped onto paper towels. Quenching buffer (100 μL) was added to each well and the cells were incubated at ambient temperature for 20 minutes without shaking.
# The cells were washed with a plate washer buffer to remove the quenching buffer. Blocking buffer (100 μL) was added and the cells were incubated at ambient temperature for at least an hour with gentle shaking.
# The cells were washed with a plate washer buffer and diluted primary antibody (50 μL) was added to each well (blocking buffer was added to the negative control wells instead). The plates were incubated overnight at 4° C. with gentle shaking.
# The wash buffer was removed, diluted secondary antibody (100 μL) was added, and the cells were incubated at ambient temperature for 1 hour with gentle shaking. During the incubation, the chemiluminescent reagent was brought to ambient temperature.
# The secondary antibody was removed by washing the cells 1× with wash buffer, 1× with PBS by plate washer. The PBS was removed from the plate and the chemiluminescent reagent (80 μL: 40 μL A and 40 μL B) was added to each well at ambient temperature.
# The resulting chemiluminescence was read with a Luminomitor within 10 minutes to minimize changes in signal intensity. […] The plate was tapped onto paper towels to remove excess liquid from wells and air-dried at ambient temperature for 5 minutes.
# Crystal Violet working solution (60 μL) was added to each well and the cells were incubated at ambient temperature for 30 min. The crystal violet solution was removed, and the wells were rinsed with PBS, then washed 3× with PBS (200 μL) for 5 minutes each.
# 5% SDS solution (70 μL) was added to each well and the cells were incubated on a shaker for 30 min at ambient temperature.
# This relative cell number was then used to normalize each luminescence reading. […]
# Axl, sequence (P30530 26-894): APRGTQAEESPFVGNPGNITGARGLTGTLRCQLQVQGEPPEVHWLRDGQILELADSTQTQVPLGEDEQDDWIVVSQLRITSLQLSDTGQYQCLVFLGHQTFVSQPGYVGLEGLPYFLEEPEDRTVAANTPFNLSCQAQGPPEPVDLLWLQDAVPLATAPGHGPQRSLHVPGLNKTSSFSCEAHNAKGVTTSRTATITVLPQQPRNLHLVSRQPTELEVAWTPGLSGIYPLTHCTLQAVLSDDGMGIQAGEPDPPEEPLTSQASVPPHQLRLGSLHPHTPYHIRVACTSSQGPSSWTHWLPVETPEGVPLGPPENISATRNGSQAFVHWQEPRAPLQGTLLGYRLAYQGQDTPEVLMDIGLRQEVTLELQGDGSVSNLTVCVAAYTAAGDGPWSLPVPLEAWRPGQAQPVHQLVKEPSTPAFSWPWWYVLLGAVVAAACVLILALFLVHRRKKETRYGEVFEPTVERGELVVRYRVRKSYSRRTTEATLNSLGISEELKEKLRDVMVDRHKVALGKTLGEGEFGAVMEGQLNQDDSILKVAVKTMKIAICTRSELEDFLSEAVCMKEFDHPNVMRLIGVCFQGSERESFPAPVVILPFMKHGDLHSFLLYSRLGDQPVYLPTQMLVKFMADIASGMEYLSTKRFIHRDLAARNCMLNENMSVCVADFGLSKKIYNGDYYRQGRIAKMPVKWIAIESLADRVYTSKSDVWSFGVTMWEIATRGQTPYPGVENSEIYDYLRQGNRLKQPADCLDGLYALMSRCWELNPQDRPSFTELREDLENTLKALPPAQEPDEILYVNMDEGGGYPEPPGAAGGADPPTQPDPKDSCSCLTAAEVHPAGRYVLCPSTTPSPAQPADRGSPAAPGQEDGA
row,SMILES,IC50
1,"Nc1nc(Nc2ccc(OCCN3CCCC3)c(F)c2)nn1-c1ncnc2sc3c(c12)CCCC3 [Compound 68, N^3-(3-fluoro-4-(2-(pyrrolidin-1-yl)ethoxy)phenyl)-1-(5,6,7,8-tetrahydrobenzo[4,5]thieno[2,3-d]pyrimidin-4-yl)-1H-1,2,4-triazole-3,5-diamine]",< 1000 nM
2,"Nc1nc(Nc2ccc(OCCN3CCCC3)cc2)nn1-c1nccc2occc12 [Compound 69, 1-(furo[3,2-c]pyridin-4-yl)-N^3-(4-(2-(pyrrolidin-1-yl)ethoxy)phenyl)-1H-1,2,4-triazole-3,5-diamine]",< 1000 nM
3,"Nc1nc(Nc2ccc(OCCN3CCCC3)cc2)nn1-c1cc2c(nn1)-c1ccccc1CC2 [Compound 75, 1-(5,6-dihydrobenzo[h]cinnolin-3-yl)-N^3-(4-(2-(pyrrolidin-1-yl)ethoxy)phenyl)-1H-1,2,4-triazole-3,5-diamine]",< 1000 nM
4,"Nc1nc(Nc2ccc(OCCN3CCCC3)cc2)nn1-c1nc(O)c2c(n1)CCCC2 [Compound 76, 2-(5-amino-3-(4-(2-(pyrrolidin-1-yl)ethoxy)phenylamino)-1H-1,2,4-triazol-1-yl)-5,6,7,8-tetrahydroquinazolin-4-ol]",> 20000 nM
5,"COc1cc2ccnc(-n3nc(Nc4ccc(OCCN5CCCC5)cc4)nc3N)c2cc1OC [Compound 77, 1-(6,7-dimethoxyisoquinolin-1-yl)-N^3-(4-(2-(pyrrolidin-1-yl)ethoxy)phenyl)-1H-1,2,4-triazole-3,5-diamine]",< 1000 nM
6,"Nc1nc(Nc2ccc(OCCN3CCCC3)cc2)nn1-c1nccc2[nH]c(=O)ccc12 [Compound 78, 5-(5-amino-3-(4-(2-(pyrrolidin-1-yl)ethoxy)phenylamino)-1H-1,2,4-triazol-1-yl)-1,6-naphthyridin-2(1H)-one]",< 1000 nM
7,"COc1cc2c(-n3nc(Nc4ccc(OCCN5CCCC5)cc4)nc3N)ncnc2cc1OCc1ccccc1 [Compound 104, 1-(7-(benzyloxy)-6-methoxyquinazolin-4-yl)-N^3-(4-(2-(pyrrolidin-1-yl)ethoxy)phenyl)-1H-1,2,4-triazole-3,5-diamine]",> 20000 nM

# Same assay, conditions: inhibition of Axl activity, Hela cells, phospho-Akt readout; Table 4, formula (Ib2)
row,SMILES,IC50
1,"COc1cc2ncnc(-n3nc(N)nc3Nc3ccc(N4CCN(C5CCCCC5)CC4)cc3)c2cc1OC [Compound 83, N^5-(4-(4-cyclohexylpiperazin-1-yl)phenyl)-1-(6,7-dimethoxyquinazolin-4-yl)-1H-1,2,4-triazole-3,5-diamine]",< 1000 nM
2,"CN1CCN(c2ccc(Nc3nc(N)nn3-c3ncnc4ccc(Cl)cc34)cc2)CC1 [Compound 86, 1-(6-chloroquinazolin-4-yl)-N^5-(4-(4-methylpiperazin-1-yl)phenyl)-1H-1,2,4-triazole-3,5-diamine]",< 1000 nM
3,"Nc1nc(Nc2ccc(N3CCN(C4CC5CCC4C5)CC3)cc2)n(-c2nc3ccccc3s2)n1 (stereo not shown) [Compound 95, 1-(benzo[d]thiazol-2-yl)-N^5-(4-(4-(bicyclo[2.2.1]heptan-2-yl)piperazin-1-yl)phenyl)-1H-1,2,4-triazole-3,5-diamine]",> 20000 nM
4,"COc1cc2ncnc(-n3nc(N)nc3Nc3ccc(N4CCN(C5CC6CCC5C6)CC4)cc3)c2cc1OC (stereo not shown) [Compound 100, N^5-(4-(4-(bicyclo[2.2.1]heptan-2-yl)piperazin-1-yl)phenyl)-1-(6,7-dimethoxyquinazolin-4-yl)-1H-1,2,4-triazole-3,5-diamine]",< 1000 nM

# Same assay, conditions: inhibition of Axl activity, phospho-Akt in-cell Western assay
row,SMILES,IC50
1,"Nc1nc(Nc2ccc(N3CCN(C4CCCCC4)CC3)cc2)nn1-c1nccc2ccccc12 [Compound 81, N^3-(4-(4-cyclohexylpiperazin-1-yl)phenyl)-1-(isoquinolin-1-yl)-1H-1,2,4-triazole-3,5-diamine]",< 1000 nM
2,"COc1cc2c(-n3nc(Nc4ccc(N5CCN(C6CCCCC6)CC5)cc4)nc3N)ncnc2cc1O [Compound 82, 4-(5-amino-3-(4-(4-cyclohexylpiperazin-1-yl)phenylamino)-1H-1,2,4-triazol-1-yl)-6-methoxyquinazolin-7-ol]",< 1000 nM
3,"CN1CCN(c2ccc(Nc3nc(N)n(-c4nccc5ccccc45)n3)cc2)CC1 [Compound 84, 1-(isoquinolin-1-yl)-N^3-(4-(4-methylpiperazin-1-yl)phenyl)-1H-1,2,4-triazole-3,5-diamine]",< 1000 nM
4,"CN1CCN(c2ccc(Nc3nc(N)n(-c4ncnc5ccc(Cl)cc45)n3)cc2)CC1 [Compound 85, 1-(6-chloroquinazolin-4-yl)-N^3-(4-(4-methylpiperazin-1-yl)phenyl)-1H-1,2,4-triazole-3,5-diamine]",< 1000 nM
5,"Nc1nc(Nc2ccc(N3CCN(C4CCCCC4)CC3)c(F)c2)nn1-c1nccc2ccccc12 [Compound 87, N^3-(4-(4-cyclohexylpiperazin-1-yl)-3-fluroophenyl)-1-(isoquinolin-1-yl)-1H-1,2,4-triazole-3,5-diamine]",< 1000 nM
6,"CC(=O)N1CCN(c2ccc(Nc3nc(N)n(-c4nccc5ccccc45)n3)cc2)CC1 [Compound 88, 1-(4-(4-(5-amino-1-(isoquinolin-1-yl)-1H-1,2,4-triazol-3-ylamino)phenyl)piperazin-1-yl)ethanone]",1000 to 10000 nM
7,"CN1CCN(c2ccc(Nc3nc(N)n(-c4nccc5ccccc45)n3)cc2F)CC1 [Compound 90, N^3-(3-fluoro-4-(4-methylpiperazin-1-yl)phenyl)-1-(isoquinolin-1-yl)-1H-1,2,4-triazole-3,5-diamine]",< 1000 nM
8,"Nc1nc(Nc2ccc(N3CCN(C4CCCCC4)CC3)c(Cl)c2)nn1-c1nccc2ccccc12 [Compound 91, N^3-(3-chloro-4-(4-cyclohexylpiperazin-1-yl)phenyl)-1-(isoquinolin-1-yl)-1H-1,2,4-triazole-3,5-diamine]",< 1000 nM
9,"CN1CCN(c2ccc(Nc3nc(N)n(-c4ncc5c(n4)-c4ccccc4CC5)n3)cc2)CC1 [Compound 92, 1-(5,6-dihydrobenzo[h]quinazolin-2-yl)-N^3-(4-(4-methylpiperazin-1-yl)phenyl)-1H-1,2,4-triazole-3,5-diamine]",< 1000 nM
10,"Nc1nc(Nc2ccc(N3CCN(C4CCCCC4)CC3)cc2)nn1-c1ncc2c(n1)-c1ccccc1CC2 [Compound 93, N^3-(4-(4-cyclohexylpiperazin-1-yl)phenyl)-1-(5,6-dihydrobenzo[h]quinazolin-2-yl)-1H-1,2,4-triazole-3,5-diamine]",< 1000 nM
11,"Nc1nc(Nc2ccc(N3CCN(C4CC5CCC4C5)CC3)cc2)nn1-c1ccccn1 (stereo not shown) [Compound 94, N^3-(4-(4-(bicyclo[2.2.1]heptan-2-yl)piperazin-1-yl)phenyl)-1-(pyridin-2-yl)-1H-1,2,4-triazole-3,5-diamine]",1000 to 10000 nM
12,"Nc1nc(Nc2ccc(N3CCN(C4CC5CCC4C5)CC3)cc2)nn1-c1nc2ccccc2s1 (stereo not shown) [Compound 96, 1-(benzo[d]thiazol-2-yl)-N^3-(4-(4-(bicyclo[2.2.1]heptan-2-yl)piperazin-1-yl)phenyl)-1H-1,2,4-triazole-3,5-diamine]",1000 to 10000 nM
13,"Nc1nc(Nc2ccc(N3CCN(C4CC5CCC4C5)CC3)cc2)nn1-c1cnc2ccccc2n1 (stereo not shown) [Compound 97, N^3-(4-(4-(bicyclo[2.2.1]heptan-2-yl)piperazin-1-yl)phenyl)-1-(quinoxalin-2-yl)-1H-1,2,4-triazole-3,5-diamine]",1000 to 10000 nM
14,"COc1cc2ncnc(-n3nc(Nc4ccc(N5CCN(C6CC7CCC6C7)CC5)cc4)nc3N)c2cc1OC (stereo not shown) [Compound 98, N^3-(4-(4-(bicyclo[2.2.1]heptan-2-yl)piperazin-1-yl)phenyl)-1-(6,7-dimethoxyquinazolin-4-yl)-1H-1,2,4-triazole-3,5-diamine]",< 1000 nM
15,"COc1cc2nc(Cl)nc(-n3nc(Nc4ccc(N5CCN(C6CC7CCC6C7)CC5)cc4)nc3N)c2cc1OC (stereo not shown) [Compound 101, N^3-(4-(4-(bicyclo[2.2.1]heptan-2-yl)piperazin-1-yl)phenyl)-1-(2-chloro-6,7-dimethoxyquinazolin-4-yl)-1H-1,2,4-triazole-3,5-diamine]",1000 to 10000 nM
16,"COc1cc2c(-n3nc(Nc4ccc(N5CCN(C6CC7CCC6C7)CC5)cc4)nc3N)nc(Cl)nc2cc1O (stereo not shown) [Compound 102, 4-(5-amino-3-(4-(4-(bicyclo[2.2.1]heptan-2-yl)piperazin-1-yl)phenylamino)-1H-1,2,4-triazol-1-yl)-2-chloro-6-methoxyquinazolin-7-ol]",< 1000 nM
17,"COc1cc2ncnc(-n3nc(Nc4ccc(N5CCN(C)CC5)c(F)c4)nc3N)c2cc1OC [Compound 105, 1-(6,7-dimethoxyquinazolin-4-yl)-N^3-(3-fluoro-4-(4-methylpiperazin-1-yl)phenyl)-1H-1,2,4-triazole-3,5-diamine]",< 1000 nM
